From patent US20120129833A1, “CYCLIC KETOENOLS FOR THERAPY” (BAYER PHARMA AKTIENGESELLSCHAFT, priority 2010, published 2012)

Key:
[1] = biological target: T1, ACC2 (acetyl-CoA carboxylase 2) (Homo sapiens, UniProt O00763); experiment: Human ACC2 enzyme assay (HTRF ADP detection); format: biochemical; conditions: 20 μM acetyl-CoA, 15 min pre-incubation, 20 min at 22° C.; read-out: ACC 2 IC50
T1 construct: catalogue no; 50201, amino acids 39—end, expressed in baculovirus-transfected Sf9 insect cells; His (C); purchased BPS Bioscience (San Diego, Calif.) 50201; host or cells: baculovirus-transfected Sf9 insect cells
T1 sequence (O00763 39-2458 limits assumed): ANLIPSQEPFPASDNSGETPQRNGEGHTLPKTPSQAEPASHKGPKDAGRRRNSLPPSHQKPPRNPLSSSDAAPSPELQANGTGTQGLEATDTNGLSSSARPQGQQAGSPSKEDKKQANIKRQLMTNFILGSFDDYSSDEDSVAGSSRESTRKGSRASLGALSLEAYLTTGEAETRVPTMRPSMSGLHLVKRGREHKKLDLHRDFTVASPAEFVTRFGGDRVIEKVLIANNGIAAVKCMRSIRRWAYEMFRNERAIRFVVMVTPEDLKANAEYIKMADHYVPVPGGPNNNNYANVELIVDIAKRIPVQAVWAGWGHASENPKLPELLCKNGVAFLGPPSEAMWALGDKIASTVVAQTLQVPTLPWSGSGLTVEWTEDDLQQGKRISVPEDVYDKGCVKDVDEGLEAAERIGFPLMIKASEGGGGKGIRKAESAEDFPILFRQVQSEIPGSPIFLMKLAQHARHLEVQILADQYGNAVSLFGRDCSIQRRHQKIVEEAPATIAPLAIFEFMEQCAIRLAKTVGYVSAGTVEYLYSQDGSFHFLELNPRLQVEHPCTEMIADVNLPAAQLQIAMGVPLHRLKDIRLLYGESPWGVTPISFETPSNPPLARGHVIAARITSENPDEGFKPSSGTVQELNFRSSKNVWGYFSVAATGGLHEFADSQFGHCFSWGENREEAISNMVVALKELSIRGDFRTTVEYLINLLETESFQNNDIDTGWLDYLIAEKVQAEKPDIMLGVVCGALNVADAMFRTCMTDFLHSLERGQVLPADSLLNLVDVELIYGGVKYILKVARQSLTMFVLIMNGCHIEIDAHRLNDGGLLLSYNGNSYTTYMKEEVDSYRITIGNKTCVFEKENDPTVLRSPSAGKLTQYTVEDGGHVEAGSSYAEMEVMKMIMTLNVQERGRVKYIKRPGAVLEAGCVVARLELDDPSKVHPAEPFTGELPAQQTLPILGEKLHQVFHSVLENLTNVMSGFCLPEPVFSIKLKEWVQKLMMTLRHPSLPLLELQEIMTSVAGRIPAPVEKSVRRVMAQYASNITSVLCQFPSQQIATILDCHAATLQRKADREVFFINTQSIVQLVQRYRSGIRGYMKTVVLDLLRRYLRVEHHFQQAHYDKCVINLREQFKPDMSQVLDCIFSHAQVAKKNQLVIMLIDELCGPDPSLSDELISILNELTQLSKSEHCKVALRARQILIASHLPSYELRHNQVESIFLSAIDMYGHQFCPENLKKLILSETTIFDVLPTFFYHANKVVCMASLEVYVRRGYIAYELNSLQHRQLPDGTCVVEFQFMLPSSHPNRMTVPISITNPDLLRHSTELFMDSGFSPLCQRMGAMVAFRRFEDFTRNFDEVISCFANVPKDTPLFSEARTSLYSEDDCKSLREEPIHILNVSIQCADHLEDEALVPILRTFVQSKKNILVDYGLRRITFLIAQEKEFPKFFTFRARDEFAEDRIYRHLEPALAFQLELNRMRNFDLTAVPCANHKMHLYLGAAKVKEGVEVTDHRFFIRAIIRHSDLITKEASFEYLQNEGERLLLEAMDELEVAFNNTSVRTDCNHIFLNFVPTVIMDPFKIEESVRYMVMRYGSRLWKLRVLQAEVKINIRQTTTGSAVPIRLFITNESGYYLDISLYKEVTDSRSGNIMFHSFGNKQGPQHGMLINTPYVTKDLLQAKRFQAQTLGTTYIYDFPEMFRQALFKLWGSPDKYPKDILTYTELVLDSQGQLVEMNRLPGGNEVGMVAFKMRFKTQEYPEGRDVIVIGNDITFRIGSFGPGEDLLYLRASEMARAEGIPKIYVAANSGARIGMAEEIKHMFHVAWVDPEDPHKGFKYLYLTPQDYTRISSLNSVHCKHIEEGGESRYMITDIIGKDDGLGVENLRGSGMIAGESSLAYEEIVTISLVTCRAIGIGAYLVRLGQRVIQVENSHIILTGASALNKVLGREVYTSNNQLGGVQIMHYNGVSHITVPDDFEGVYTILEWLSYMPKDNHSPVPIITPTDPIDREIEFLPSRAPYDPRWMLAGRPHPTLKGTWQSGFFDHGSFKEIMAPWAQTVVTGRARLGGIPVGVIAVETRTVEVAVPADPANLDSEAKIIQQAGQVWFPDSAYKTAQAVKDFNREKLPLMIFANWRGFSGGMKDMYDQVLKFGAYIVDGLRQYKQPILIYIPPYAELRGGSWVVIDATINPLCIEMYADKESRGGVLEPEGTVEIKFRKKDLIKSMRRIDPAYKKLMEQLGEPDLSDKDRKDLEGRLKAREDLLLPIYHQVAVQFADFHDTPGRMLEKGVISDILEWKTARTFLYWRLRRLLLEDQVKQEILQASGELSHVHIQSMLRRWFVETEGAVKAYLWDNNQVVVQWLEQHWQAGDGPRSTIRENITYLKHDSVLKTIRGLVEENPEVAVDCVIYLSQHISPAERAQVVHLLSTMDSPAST
Procedure: The inhibitory activity of the substances of this invention with regard to acetyl-CoA carboxylase 2 (ACC2) was measured using the ACC2 assay described in the paragraphs below. The basic principle of the assay is the measurement of adenosine diphosphate (ADP), which is formed as a by-product, by means of an HTRF®-based competitive immunoassay (HTRF=Homogeneous Time Resolved Fluorescence).
(§1) The amount of complex of d2-labelled ADP and europium cryptate-labelled anti-ADP antibody was then determined by measuring the resonance energy transfer of europium cryptate to d2.

[2] = biological target: T2, recombinant human ACC1 (acetyl-CoA carboxylase 1) (Homo sapiens, UniProt Q13085); experiment: Human ACC1 enzyme assay (HTRF ADP detection); format: biochemical; conditions: 50 μM ATP, 20 μM acetyl-CoA, 15 min pre-incubation, 20 min at 22° C.; read-out: ACC 1 IC50;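 further: ADP by-product quantified by competitive HTRF immunoassay with europium cryptate anti-ADP antibody and d2-labelled ADP, read after 1 h binding at 22 °C, enzyme near 2.5 ng/µl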
T2 construct: NM_198834, amino acids 39—end; FLAG (C); made in house; host or cells: baculovirus-transfected insect cells (Hi5)
Procedure: The basic principle of the assay is the measurement of adenosine diphosphate (ADP), which is formed as a by-product, by means of an HTRF®-based competitive immunoassay (HTRF=Homogeneous Time Resolved Fluorescence).
as §1

SMILES | IC50 [1] [µM] | IC50 [2] [nM]
O=C1C(c2cc(-c3ccc(F)c(Cl)c3)ccc2Cl)C(=O)N2CCCCN12 [Example 8-4, 2-(3′,4-dichloro-4′-fluorobiphenyl-3-yl)tetrahydro-1H-pyrazolo[1,2-a]pyridazine-1,3(2H)-dione] | > 20 | 3180
Cc1ccc(-c2ccc(C)c(C3=C(O)C4(CCCOC4)NC3=O)c2)cc1 (stereo not shown) [Example 1-14, 3-(4,4′-dimethylbiphenyl-3-yl)-4-hydroxy-7-oxa-1-azaspiro[4.5]dec-3-en-2-one] | > 20 | 990
Cc1ccc(-c2ccc(Cl)cc2)cc1C1=C(O)CC(C)CC1=O (stereo not shown) [Example 7-1, 2-(4′-chloro-4-methylbiphenyl-3-yl)-3-hydroxy-5-methylcyclohex-2-en-1-one] | > 20 | 678
CC1COC2(CCC3(CC2)NC(=O)C(c2cc(-c4ccc(Cl)cc4)ccc2Cl)=C3O)OC1 (stereo not shown) [Example 1-69, 3-(4,4′-dichlorobiphenyl-3-yl)-4-hydroxy-1′-methyl-9,13-dioxa-1-azadispiro[4.2.5.2]pentadec-3-en-2-one] | 11 | 647
COCC1CCCC2(C1)NC(=O)C(c1cc(-c3ccc(Cl)cc3)ccc1C)=C2O (stereo not shown) [Example 1-51, 3-(4′-chloro-4-methylbiphenyl-3-yl)-4-hydroxy-7-(methoxymethyl)-1-azaspiro[4.5]dec-3-en-2-one] | 4.91 | 473
Cc1ccc(-c2ccc(Cl)cc2)cc1C1=C(O)C2(CCC3(CC2)OCCO3)NC1=O [Example 1-60, 11-(4′-chloro-4-methylbiphenyl-3-yl)-12-hydroxy-1,4-dioxa-9-azadispiro[4.2.4.2]tetradec-11-en-10-one] | 2.33 | 237
Cc1ccc(-c2ccc(Cl)cc2)cc1C1=C(O)C2(CCC(C(C)C)CC2)NC1=O (stereo not shown) [Example 1-24, 3-(4′-chloro-4-methylbiphenyl-3-yl)-4-hydroxy-8-(propan-2-yl)-1-azaspiro[4.5]dec-3-en-2-one] | 0.21 | 340
COCCO[C@@H]1CCC[C@]2(C1)NC(=O)C(c1cc(-c3ccc(Cl)cc3)ccc1Cl)=C2O (relative stereo) [Example 1-74, rel-(5R,7R)-3-(4,4′-dichlorobiphenyl-3-yl)-4-hydroxy-7-(2-methoxyethoxy)-1-azaspiro[4.5]dec-3-en-2-one] | 16.4 | 656
Cc1ccc(-c2ccc(F)cc2)c(C)c1C1C(=O)N2CCOCCN2C1=O [Example 8-7, 8-(4′-fluoro-2,4-dimethylbiphenyl-3-yl)tetrahydro-7H-pyrazolo[1,2-d][1,4,5]oxadiazepine-7,9(8H)-dione] | > 20 | 2380
Cc1ccc(-c2ccc(F)c(F)c2)cc1C1=C(O)C2(CCC3(CCCO3)CC2)NC1=O (stereo not shown) [Example 1-35, 11-(3′,4′-difluoro-4-methylbiphenyl-3-yl)-12-hydroxy-1-oxa-9-azadispiro[4.2.4.2]tetradec-11-en-10-one] | 4 | 298
Cc1ccc(-c2ccc(Cl)cc2)cc1C1=C(O)C2(CCC3(CC2)OCC(C)CO3)NC1=O (stereo not shown) [Example 1-66, 3-(4′-chloro-4-methylbiphenyl-3-yl)-4-hydroxy-1′-methyl-9,13-dioxa-1-azadispiro[4.2.5.2]pentadec-3-en-2-one] | 1.54 | 409
Cc1ccc(-c2ccc(Cl)cc2)cc1C1=C(O)C2(CCCOC2)OC1=O (stereo not shown) [Example 2-9, 3-(4′-chloro-4-methylbiphenyl-3-yl)-4-hydroxy-1,7-dioxaspiro[4.5]dec-3-en-2-one] | > 20 | 334
Cc1ccc(-c2ccc(Cl)cc2)cc1C1=C(O)C2(CCC(OCC(F)(F)F)CC2)OC1=O (stereo not shown) [Example 2-33, 3-(4′-chloro-4-methylbiphenyl-3-yl)-4-hydroxy-8-(2,2,2-trifluoroethoxy)-1-oxaspiro[4.5]dec-3-en-2-one] | 3.59 | 229
O=C1OC2(CCCCC2)C(O)=C1c1cc(-c2ccc(F)c(F)c2)ccc1Cl [Example 2-25, 3-(4-chloro-3′,4′-difluorobiphenyl-3-yl)-4-hydroxy-1-oxaspiro[4.5]dec-3-en-2-one] | > 20 | 442
COC1CCCC2(C1)OC(=O)C(c1cc(-c3ccc(Cl)cc3)ccc1C)=C2O (stereo not shown) [Example 2-14, 3-(4′-chloro-4-methylbiphenyl-3-yl)-4-hydroxy-7-methoxy-1-oxaspiro[4.5]dec-3-en-2-one] | 19.4 | 562
Cc1ccc(-c2ccc(C)c(C3=C(O)C4(CCCCC4)NC3=O)c2)cc1 [Example 1-13, 3-(4,4′-dimethylbiphenyl-3-yl)-4-hydroxy-1-azaspiro[4.5]dec-3-en-2-one] | 18.9 | 353
Cc1ccc(-c2ccc(Cl)cc2)cc1C1=C(O)C(C(C)(C)C)OC1=O (stereo not shown) [Example 2-35, 5-tert-butyl-3-(4′-chloro-4-methylbiphenyl-3-yl)-4-hydroxyfuran-2(5H)-one] | > 20 | 1020
CC[C@]1(OC)CC[C@@]2(CC1)NC(=O)C(c1c(C)ccc(-c3ccc(F)cc3)c1C)=C2O [Example 1-89, (5r,8r)-8-ethyl-3-(4′-fluoro-2,4-dimethylbiphenyl-3-yl)-4-hydroxy-8-methoxy-1-azaspiro[4.5]dec-3-en-2-one] | > 20 | 858
Cc1ccc(-c2ccc(F)c(Cl)c2)cc1C1=C(O)C2(CCCC2)OC1=O [Example 2-23, 3-(3′-chloro-4′-fluoro-4-methylbiphenyl-3-yl)-4-hydroxy-1-oxaspiro[4.4]non-3-en-2-one] | > 20 | 1370
COC1CCC2(CC1)OC(=O)C(c1c(C)ccc(-c3ccc(Cl)cc3)c1C)=C2O (stereo not shown) [Example 2-34, 3-(4′-chloro-2,4-dimethylbiphenyl-3-yl)-4-hydroxy-8-methoxy-1-oxaspiro[4.5]dec-3-en-2-one] | 1.27 | 286
COCC1CCC2(CC1)NC(=O)C(c1c(C)ccc(-c3ccc(Cl)cc3)c1C)=C2O (stereo not shown) [Example 1-53, 3-(4′-chloro-2,4-dimethylbiphenyl-3-yl)-4-hydroxy-8-(methoxymethyl)-1-azaspiro[4.5]dec-3-en-2-one] | 0.214 | 506
Cc1ccc(-c2ccc(Cl)cc2)cc1C1=C(O)CC2(CCCCC2)CC1=O [Example 7-2, 3-(4′-chloro-4-methylbiphenyl-3-yl)-4-hydroxyspiro[5.5]undec-3-en-2-one] | > 20 | 578
Cc1cc(C)c(-c2ccc(Cl)cc2)c(C)c1C1=C(O)C2(CCCC2)OC1=O [Example 2-49, 3-(4′-chloro-2,4,6-trimethylbiphenyl-3-yl)-4-hydroxy-1-oxaspiro[4.4]non-3-en-2-one] | 1.28 | 5780
